According to patent US12465594B2 (Brown University, priority 2018, dated 2025):

What was measured:
D1 = target: T1, D1 (Homo sapiens, UniProt P21728); test: PDSP binding assay; conditions: 10 μM, quadruplicate, cloned target
T1 construct: NIMH Psychoactive Drug Screening Program (PDSP)

Beta1 = Beta1 (Homo sapiens, UniProt P08588); test: PDSP binding assay; conditions: 10 μM, quadruplicate, cloned target
M1 = M1 (Homo sapiens, UniProt P11229); test: PDSP binding assay; conditions: 10 μM, quadruplicate, cloned target
Chain of M1 (P11229 whole entry): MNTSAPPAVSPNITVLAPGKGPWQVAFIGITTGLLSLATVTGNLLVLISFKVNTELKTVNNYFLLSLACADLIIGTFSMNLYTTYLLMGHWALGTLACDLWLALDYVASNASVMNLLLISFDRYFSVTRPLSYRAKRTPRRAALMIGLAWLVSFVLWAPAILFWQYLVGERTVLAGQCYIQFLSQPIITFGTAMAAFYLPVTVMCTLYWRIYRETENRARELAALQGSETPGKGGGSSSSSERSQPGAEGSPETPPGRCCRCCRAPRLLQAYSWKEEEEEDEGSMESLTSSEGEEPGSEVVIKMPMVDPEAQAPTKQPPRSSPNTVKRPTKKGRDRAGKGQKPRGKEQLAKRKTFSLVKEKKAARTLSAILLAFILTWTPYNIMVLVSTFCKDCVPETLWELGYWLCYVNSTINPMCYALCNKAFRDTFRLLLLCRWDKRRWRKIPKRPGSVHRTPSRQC

Alpha2B = Alpha2B (Homo sapiens, UniProt P18089); test: PDSP binding assay; conditions: 10 μM, quadruplicate, cloned target
5-HT1A = target: T2, 5-HT1A (Homo sapiens, UniProt P08908); test: PDSP binding assay; conditions: 10 μM, quadruplicate, cloned target
T2 construct: NIMH Psychoactive Drug Screening Program (PDSP)
T2 sequence (P08908 whole entry, species assumed): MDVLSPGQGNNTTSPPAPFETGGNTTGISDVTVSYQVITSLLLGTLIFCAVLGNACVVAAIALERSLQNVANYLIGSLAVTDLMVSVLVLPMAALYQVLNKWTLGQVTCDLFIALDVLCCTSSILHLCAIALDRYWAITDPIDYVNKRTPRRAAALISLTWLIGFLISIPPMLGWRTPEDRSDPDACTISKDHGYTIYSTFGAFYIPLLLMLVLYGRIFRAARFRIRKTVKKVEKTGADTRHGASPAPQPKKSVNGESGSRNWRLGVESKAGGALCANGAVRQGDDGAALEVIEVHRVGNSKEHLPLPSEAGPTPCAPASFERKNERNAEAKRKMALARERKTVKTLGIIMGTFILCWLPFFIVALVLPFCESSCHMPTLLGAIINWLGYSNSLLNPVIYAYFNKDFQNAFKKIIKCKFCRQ

5-HT2A = target: T3, 5-HT2A (Homo sapiens, UniProt P28223); test: PDSP binding assay; conditions: 10 μM, quadruplicate, cloned target
T3 construct: NIMH Psychoactive Drug Screening Program (PDSP)
T3 sequence (P28223 whole entry, species assumed): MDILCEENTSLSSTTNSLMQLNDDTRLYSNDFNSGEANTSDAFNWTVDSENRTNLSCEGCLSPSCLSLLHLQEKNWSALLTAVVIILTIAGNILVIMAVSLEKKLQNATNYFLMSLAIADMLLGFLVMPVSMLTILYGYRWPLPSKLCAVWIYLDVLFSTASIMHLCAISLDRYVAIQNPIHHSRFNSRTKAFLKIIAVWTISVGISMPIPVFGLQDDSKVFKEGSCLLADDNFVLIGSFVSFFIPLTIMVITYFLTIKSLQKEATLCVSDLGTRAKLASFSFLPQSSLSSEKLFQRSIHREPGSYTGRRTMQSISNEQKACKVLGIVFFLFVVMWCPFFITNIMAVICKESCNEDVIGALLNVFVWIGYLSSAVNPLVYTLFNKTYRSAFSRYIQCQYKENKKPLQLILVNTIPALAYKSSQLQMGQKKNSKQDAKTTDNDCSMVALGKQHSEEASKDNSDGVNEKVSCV

Sigma 2 = test: PDSP binding assay; conditions: 10 μM, quadruplicate, cloned target
CYP2D6 = CYP2D6 (Homo sapiens, UniProt P10635); test: in vitro; conditions: microsomes
5-HT7 = target: T4, 5-HT7 (Homo sapiens, UniProt P34969); test: PDSP binding assay; conditions: 10 μM, quadruplicate, cloned target
T4 construct: NIMH Psychoactive Drug Screening Program (PDSP)

Alpha2A = Alpha2A (Homo sapiens, UniProt P08913); test: PDSP binding assay; conditions: 10 μM, quadruplicate, cloned target
GABAA = test: PDSP binding assay; conditions: 10 μM, quadruplicate, cloned target
5-HT2C = target: T5, 5-HT2C (Homo sapiens, UniProt P28335); test: PDSP binding assay; conditions: 10 μM, quadruplicate, cloned target
T5 construct: NIMH Psychoactive Drug Screening Program (PDSP)
T5 sequence (P28335 33-458, species assumed): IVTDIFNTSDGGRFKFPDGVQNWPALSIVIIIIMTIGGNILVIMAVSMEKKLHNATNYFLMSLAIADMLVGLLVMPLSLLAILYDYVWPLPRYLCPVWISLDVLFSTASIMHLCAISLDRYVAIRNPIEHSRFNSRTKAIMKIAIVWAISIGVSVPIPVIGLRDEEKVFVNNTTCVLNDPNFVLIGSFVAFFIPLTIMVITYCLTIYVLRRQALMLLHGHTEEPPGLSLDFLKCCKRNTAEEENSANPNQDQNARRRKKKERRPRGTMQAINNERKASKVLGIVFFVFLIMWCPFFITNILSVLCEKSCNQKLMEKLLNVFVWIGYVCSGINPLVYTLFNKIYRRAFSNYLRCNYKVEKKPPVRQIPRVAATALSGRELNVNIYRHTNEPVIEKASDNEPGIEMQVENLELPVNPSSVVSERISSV

Alpha1A = Alpha1A (Homo sapiens, UniProt P35348); test: PDSP binding assay; conditions: 10 μM, quadruplicate, cloned target
SERT = SERT (Homo sapiens, UniProt P31645); test: PDSP binding assay; conditions: 10 μM, quadruplicate, cloned target
Chain of SERT (P31645 whole entry, species assumed): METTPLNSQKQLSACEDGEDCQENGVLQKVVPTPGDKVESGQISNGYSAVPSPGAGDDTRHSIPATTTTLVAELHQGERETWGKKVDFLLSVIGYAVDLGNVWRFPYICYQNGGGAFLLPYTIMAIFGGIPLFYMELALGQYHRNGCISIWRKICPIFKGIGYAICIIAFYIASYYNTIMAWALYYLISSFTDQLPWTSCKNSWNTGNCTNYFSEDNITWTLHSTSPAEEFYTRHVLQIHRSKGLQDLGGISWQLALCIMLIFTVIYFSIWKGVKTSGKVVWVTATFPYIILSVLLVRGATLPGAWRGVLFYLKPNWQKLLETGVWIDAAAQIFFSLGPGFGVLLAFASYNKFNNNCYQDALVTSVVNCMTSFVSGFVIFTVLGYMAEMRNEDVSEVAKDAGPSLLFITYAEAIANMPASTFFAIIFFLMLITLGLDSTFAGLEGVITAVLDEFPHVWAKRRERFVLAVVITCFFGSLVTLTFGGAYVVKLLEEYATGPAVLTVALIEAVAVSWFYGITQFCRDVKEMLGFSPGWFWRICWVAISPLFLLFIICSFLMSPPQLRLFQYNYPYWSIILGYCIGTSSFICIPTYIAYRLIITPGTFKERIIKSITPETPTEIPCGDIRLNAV

5-HT1B = target: T6, 5-HT1B (Homo sapiens, UniProt P28222); test: PDSP binding assay; conditions: 10 μM, quadruplicate, cloned target
T6 construct: NIMH Psychoactive Drug Screening Program (PDSP)

M2 = M2 (Homo sapiens, UniProt P08172); test: PDSP binding assay; conditions: 10 μM, quadruplicate, cloned target
Chain of M2 (P08172 whole entry): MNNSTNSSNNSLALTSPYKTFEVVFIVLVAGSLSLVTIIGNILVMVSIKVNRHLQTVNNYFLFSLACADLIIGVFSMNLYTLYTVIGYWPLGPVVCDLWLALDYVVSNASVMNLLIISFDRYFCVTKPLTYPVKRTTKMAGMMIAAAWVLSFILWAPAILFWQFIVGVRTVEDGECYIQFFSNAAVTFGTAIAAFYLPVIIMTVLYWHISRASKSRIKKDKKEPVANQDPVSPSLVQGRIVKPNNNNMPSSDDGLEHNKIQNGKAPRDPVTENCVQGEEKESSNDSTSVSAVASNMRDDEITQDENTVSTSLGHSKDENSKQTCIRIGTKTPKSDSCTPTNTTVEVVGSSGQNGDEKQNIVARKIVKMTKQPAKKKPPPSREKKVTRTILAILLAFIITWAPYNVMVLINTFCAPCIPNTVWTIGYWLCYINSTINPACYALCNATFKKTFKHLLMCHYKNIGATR

[1] = In vivo pharmacokinetic study, plasma and brain exposure; conditions: mouse, 10 mg/kg i.p.
M5 = M5 (Homo sapiens, UniProt P08912); test: PDSP binding assay; conditions: 10 μM, quadruplicate, cloned target
Chain of M5 (P08912 whole entry): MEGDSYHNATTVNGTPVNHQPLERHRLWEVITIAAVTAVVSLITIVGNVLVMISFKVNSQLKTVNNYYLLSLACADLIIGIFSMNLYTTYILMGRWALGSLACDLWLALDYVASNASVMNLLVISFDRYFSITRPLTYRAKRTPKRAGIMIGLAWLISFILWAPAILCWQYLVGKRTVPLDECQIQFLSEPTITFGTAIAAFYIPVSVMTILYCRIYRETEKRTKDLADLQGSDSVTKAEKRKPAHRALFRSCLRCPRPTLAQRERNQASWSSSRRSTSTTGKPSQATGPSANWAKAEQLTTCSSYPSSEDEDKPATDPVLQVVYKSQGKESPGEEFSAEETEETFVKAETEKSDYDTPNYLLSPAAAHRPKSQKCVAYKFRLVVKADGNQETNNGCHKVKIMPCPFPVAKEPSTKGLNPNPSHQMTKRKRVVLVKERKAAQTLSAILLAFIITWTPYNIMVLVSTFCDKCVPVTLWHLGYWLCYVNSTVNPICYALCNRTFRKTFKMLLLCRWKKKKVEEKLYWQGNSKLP

D5 = D5 (Homo sapiens, UniProt P21918); test: PDSP binding assay; conditions: 10 μM, quadruplicate, cloned target
BZP Rat Brain Site = test: PDSP binding assay; conditions: 10 μM, quadruplicate
DOR = DOR (Homo sapiens, UniProt P41143); test: PDSP binding assay; conditions: 10 μM, quadruplicate, cloned target
5-HT3 = target: T7, 5-HT3 (Homo sapiens, UniProt P46098); test: PDSP binding assay; conditions: 10 μM, quadruplicate, cloned target
T7 construct: NIMH Psychoactive Drug Screening Program (PDSP)
T7 sequence (P46098 24-478, species assumed): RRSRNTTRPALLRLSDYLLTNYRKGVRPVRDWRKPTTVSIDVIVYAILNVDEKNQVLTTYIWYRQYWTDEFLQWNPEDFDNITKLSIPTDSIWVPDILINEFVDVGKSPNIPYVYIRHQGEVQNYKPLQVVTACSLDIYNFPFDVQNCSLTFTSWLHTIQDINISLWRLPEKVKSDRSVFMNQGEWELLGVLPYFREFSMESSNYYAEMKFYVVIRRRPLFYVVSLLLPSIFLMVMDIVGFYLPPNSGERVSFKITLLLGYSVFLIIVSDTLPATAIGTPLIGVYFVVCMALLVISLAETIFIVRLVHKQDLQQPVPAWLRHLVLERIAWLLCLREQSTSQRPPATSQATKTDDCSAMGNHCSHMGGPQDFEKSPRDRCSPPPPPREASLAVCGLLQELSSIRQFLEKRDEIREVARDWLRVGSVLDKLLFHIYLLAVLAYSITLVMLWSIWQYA

NET = NET (Homo sapiens, UniProt P23975); test: PDSP binding assay; conditions: 10 μM, quadruplicate, cloned target
Chain of NET (P23975 whole entry): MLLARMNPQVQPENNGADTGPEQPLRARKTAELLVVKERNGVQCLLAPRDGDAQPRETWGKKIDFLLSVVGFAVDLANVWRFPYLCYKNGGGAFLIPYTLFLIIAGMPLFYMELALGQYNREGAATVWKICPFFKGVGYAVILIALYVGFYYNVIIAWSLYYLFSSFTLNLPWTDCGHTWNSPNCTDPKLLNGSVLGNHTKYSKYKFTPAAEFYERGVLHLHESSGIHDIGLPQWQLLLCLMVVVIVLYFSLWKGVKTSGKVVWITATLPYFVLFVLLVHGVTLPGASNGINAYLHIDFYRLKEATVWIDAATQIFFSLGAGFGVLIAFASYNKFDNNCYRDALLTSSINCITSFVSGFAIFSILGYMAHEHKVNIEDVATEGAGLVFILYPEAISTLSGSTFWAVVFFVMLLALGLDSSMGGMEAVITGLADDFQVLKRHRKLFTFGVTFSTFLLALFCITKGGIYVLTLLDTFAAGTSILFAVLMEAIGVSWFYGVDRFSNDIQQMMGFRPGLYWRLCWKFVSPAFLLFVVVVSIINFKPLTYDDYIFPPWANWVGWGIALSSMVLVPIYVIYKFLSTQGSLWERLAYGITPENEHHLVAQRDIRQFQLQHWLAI

[2] = tested on: NMDAR EPSCs in VTA dopamine neurons; test: Electrophysiology: CRF potentiation of NMDAR EPSCs in VTA slices; format: cell-based, mouse; conditions: 30 μM compound, CRF 1 μM, VTA-DA neurons, acute brain slices
Text: Male and female mice (n=44; 6-10 weeks) were anesthetized with Euthasol (Butler-Schein). Brains were rapidly removed and placed in ice-cold NMDG-based artificial Cerebrospinal Fluid (aCSF) cutting solution containing (in mM): 92 NMDG, 20 HEPES, 25 glucose, 30 NaHCO3, 2.5 KCl, 1.2 NaPO4 saturated with 95% O2/5% CO2 with an osmolarity of 305-308 mOsm (Advanced Cell Diagnostics). The brain was cut in ice-cold NMDG solution to obtain horizontal VTA slices, 230 μm thick, using a Leica vibratome (Leica VT1200) and slices were incubated in warm NMDG solution (34° C.) for <5 minutes before being placed in a modified aCSF holding solution (in mM): 92 NaCl, 20 HEPES, 25 glucose, 30 NaHCO3, 2.5 KCl, 1.2 NaPO4 (305-308 mOsm). Slices were incubated at room temperature for at least 1 hour before recording.
Whole-cell patch clamp of the lateral VTA was performed under the guidance of IR-DIC optics on an Olympus BX5iWI microscope. Cells were patched with 1.8-3 MO resistance glass microelectrodes containing the following internal solution (in mM): 117 cesium methanesulfonate, 20 HEPES, 0.4 EGTA, 2.8 NaCl, 5 TEA-CI, 4 Mg-ATP, 0.4 Na-GTP, and 5 QX-314 (280-285 mOsm). Dopamine cells were identified by the following criteria: 1) large multipolar soma, 30-40 μm in diameter, 2) tonic firing of <4 Hz when cell attached, 3) large […] with negative voltage step (identified immediately following break in). […] Series resistance was monitored online. […]
For electrophysiology measures, excitatory post-synaptic currents (EPSCs) were normalized to 7 minute of averaged baseline responses, prior to drug application. […] Results are reported as M±SEM a in bar graphs comparing drug to vehicle and analyzed by a one-way ANOVA and post-hoc comparisons to vehicle were performed using a Bonferroni multiple comparisons correction measures (**p<0.01). […]
NMDAR excitatory postsynaptic currents (EPSCs) were recorded from VTA dopamine (DA) neurons in acute brain slices from male and female mice. […]

T1 sequence (P21728 whole entry): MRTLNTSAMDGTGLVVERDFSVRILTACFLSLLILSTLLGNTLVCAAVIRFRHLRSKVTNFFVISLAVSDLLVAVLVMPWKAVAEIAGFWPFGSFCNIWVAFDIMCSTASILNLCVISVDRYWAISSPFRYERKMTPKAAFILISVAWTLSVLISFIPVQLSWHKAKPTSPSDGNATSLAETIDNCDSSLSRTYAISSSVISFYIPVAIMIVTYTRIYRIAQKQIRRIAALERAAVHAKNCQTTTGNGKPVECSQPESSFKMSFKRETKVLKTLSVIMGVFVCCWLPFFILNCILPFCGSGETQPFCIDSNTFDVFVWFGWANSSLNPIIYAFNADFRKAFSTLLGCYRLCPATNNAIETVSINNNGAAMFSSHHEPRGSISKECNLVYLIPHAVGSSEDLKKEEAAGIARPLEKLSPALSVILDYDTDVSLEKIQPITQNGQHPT

| SMILES | Activity at D1 (binding assay) (D1) | Activity at Beta1 (binding assay) (Beta1) | Activity at M1 (binding assay) (M1) | Activity at Alpha2B (binding assay) (Alpha2B) | Activity at 5-HT1A (binding assay) (5-HT1A) | Activity at 5-HT2A (binding assay) (5-HT2A) | Activity at Sigma 2 (binding assay) (Sigma 2) | inhibition at 10 µM (CYP2D6) | Activity at 5-HT7 (binding assay) (5-HT7) | Activity at Alpha2A (binding assay) (Alpha2A) | Activity at GABAA (binding assay) (GABAA) | Activity at 5-HT2C (binding assay) (5-HT2C) | Activity at Alpha1A (binding assay) (Alpha1A) | Activity at SERT (binding assay) (SERT) | Activity at 5-HT1B (binding assay) (5-HT1B) | Activity at M2 (binding assay) (M2) | Brain exposure ([1]; 4 hour post-dose) | Brain exposure relative to IC50 ([1]; 4 hour post-dose) | Brain exposure ([1]; 24 hour post-dose) | Brain exposure relative to IC50 ([1]; 24 hour post-dose) | other results |
| --- | --- | --- | --- | --- | --- | --- | --- | --- | --- | --- | --- | --- | --- | --- | --- | --- | --- | --- | --- | --- | --- |
| CC(C)Cn1c(SCC(=O)N2CCc3ccccc3C2)nc2cc(Cl)ccc2c1=O [MLS-0219419] | 1% | 1% | −15% | 0% | −9% | −1% | 9% | -21% | 6% | 8% | 9% | −7% | −15% | −14% | 18% | 23% | 245 nM | 0.52 ×IC50 | 78 nM | 0.17 ×IC50 | Plasma Cmax exposure relative to in vitro IC50 [1]: 1.7 ×; Activity at M5 (binding assay) (M5): −2%; Activity at D5 (binding assay) (D5): −15%; Activity at BZP Rat Brain Site (binding assay) (BZP Rat Brain Site): 25%; Activity at DOR (binding assay) (DOR): −8%; Activity at 5-HT3 (binding assay) (5-HT3): 2%; Activity at NET (binding assay) (NET): 12%; Block of CRF potentiation of NMDAR EPSCs [2]: sufficient to block the CRF effect |
| Brc1ccccc1-c1nnc(CSc2nnnn2-c2ccccc2)o1 [MLS-0046818] | −1% | 7% | −15% | 2% | 26% | 5% | −7% | -128% | −31% | 4% | 15% | 19% | 10% | −14% | 5% | 10% | 56 nM | 0.10 ×IC50 | 40 nM | 0.07 ×IC50 | Brain exposure relative to IC50 ([1]; 6 hour post-dose): 0.14 ×IC50; Plasma Cmax exposure relative to in vitro IC50 [1]: 4.8 ×; Activity at M5 (binding assay) (M5): −6%; Activity at D5 (binding assay) (D5): 12%; Activity at BZP Rat Brain Site (binding assay) (BZP Rat Brain Site): 35%; Activity at DOR (binding assay) (DOR): −7%; Activity at 5-HT3 (binding assay) (5-HT3): −2%; Activity at NET (binding assay) (NET): 8%; Block of CRF potentiation of NMDAR EPSCs [2]: sufficient to block the CRF effect |
